{"source": "patent US20010014671A1", "about": "“Treatment of osteoarthritis by administering poly-N-acetyl-D-glucosamine” (Lescarden, Inc., priority 1996, published 2001)", "key": {"[1]": {"details": "cited from earlier work"}, "[2]": {"details": "human trials, cited from earlier work"}, "[3]": {"assay": "Serum NAG and glucosamine levels after oral ingestion of NAG or poly-NAG in healthy subjects (crossover, HPLC analysis)", "format": "in vivo, human", "excerpt": "Ten normal, healthy subjects (five men and five women ages 36-50) were randomly divided into two groups (designated as A and B). On Day-1 a fasting blood sample was collected from each patient. Following this, group A orally ingested 1.0 gram of NAG and group B ingested 1.0 gram of poly-NAG. On Day-2 the subjects again ingested one gram of the appropriate test substance before breakfast. On the third day a fasting blood sample was taken at time T=0. Subsequently, they consumed the final 1.0 gram of the appropriate test substance, and nonfasting blood samples were taken at 1, 2, 4, and 8 hours. Fasting blood samples were taken at 24 and 48 hours thereafter. […] On Day-8, after a fasting blood sampling, the groups were switched (i.e., group A took poly-NAG while group B consumed NAG) and the same procedure as shown above was repeated.\nThe data were analyzed using analytical HPLC procedure based on published methods for amino sugar analysis. The chromatographic system consisted of a Hewlett-Packard 1090M Liquid Chromatograph/Work Station equipped with a Diode Array Detector. Separation was by isocratic elution at 40° C. from a 300×7.8 mm Rezex Organic Acid Column (Phenomenex; N>75000 P/m) with 0.005N H2SO4 at a flow rate of 0.6 ml/min. The analytical conditions had been developed for resolution of the aminosugar/acetylated aminosugar components of physiological fluids, and the diode array detector was optimized at 193 nm for maximum sensitivity and minimum interference. The system was calibrated with standards before, during and after the study to assure there were no significant changes due to wear and tear or aging of the system. The chromatographic data were transferred to a spreadsheet and statistically tested with ANOVA (Single Factor, Two-Factor without Replication, Two-Factor with Replication) and paired T-tests."}}}
{"smiles": "N[C@H]1C(O)O[C@H](CO)[C@@H](O)[C@@H]1O", "note": "(stereo partly shown) [glucosamine]", "values": [{"measurement": "excreted in the feces", "setting": "[1]; dog, in vivo", "value": 1.7, "unit": "%"}, {"measurement": "time of peak protein incorporation of glucosamine", "setting": "[1]; incorporation into alpha and beta globulins", "value": 8, "unit": "h"}, {"measurement": "excreted in urine", "setting": "[1]; mainly as glucosamine", "value": 34, "unit": "%"}]}
{"smiles": "N[C@H]1C(O)O[C@H](CO)[C@@H](O)[C@@H]1O.O=S(=O)(O)O", "note": "(stereo partly shown) [glucosamine sulfate]", "values": [{"measurement": "effect on symptoms of osteoarthritis", "setting": "[2]; pain, joint tenderness, swelling and mobility", "value": "significant improvement in the symptoms of pain, joint tenderness, swelling and mobility"}, {"measurement": "adverse side effects or undesirable drug interactions", "setting": "[2]", "value": "not to have any adverse side effects or undesirable interactions with other drugs"}]}
{"smiles": "CC(=O)N[C@H]1C(O)O[C@H](CO)[C@@H](O)[C@@H]1O", "note": "(stereo partly drawn) [NAG, N-acetyl-D-glucosamine]", "values": [{"measurement": "subjects showing decreased serum NAG levels", "setting": "[3]; 24 hours following cessation of ingestion, both groups together (4/20)", "value": 20, "unit": "%"}, {"measurement": "concentration of NAG in serum, Avg", "setting": "[3]; Pre (pretest fasting sample before ingestion), 1.0 g per day oral", "value": "10.3 nanomoles per ml of serum"}, {"measurement": "subjects with increased serum NAG concentrations", "setting": "[3]; T=0 compared with pretest values, fraction of 20 subject-periods", "value": "6/20"}, {"measurement": "subjects showing an increase in serum NAG", "setting": "[3]; T=1 hour compared with pretest value, fraction of 20 subject-periods", "value": "8/20"}, {"measurement": "concentration at 0 h", "setting": "[3]; both sexes, human, serum, T0, third day fasting, before final 1.0 g oral dose", "value": 15.4, "unit": "µM"}, {"measurement": "concentration at 1 h", "setting": "[3]; both sexes, human, serum, T1, 1 hour after final 1.0 g oral dose, nonfasting", "value": 18.2, "unit": "µM"}, {"measurement": "concentration at 2 h", "setting": "[3]; both sexes, human, serum, T2, 2 hours after final 1.0 g oral dose, nonfasting", "value": 21, "unit": "µM"}, {"measurement": "concentration at 4 h", "setting": "[3]; both sexes, human, serum, T4, 4 hours after final 1.0 g oral dose, nonfasting", "value": 22.9, "unit": "µM"}, {"measurement": "concentration at 8 h", "setting": "[3]; both sexes, human, serum, T8, 8 hours after final 1.0 g oral dose, nonfasting", "value": 14.6, "unit": "µM"}, {"measurement": "concentration at 24 h", "setting": "[3]; both sexes, human, serum, T24, 24 hours after final 1.0 g oral dose, fasting", "value": 13.6, "unit": "µM"}, {"measurement": "concentration at 48 h", "setting": "[3]; both sexes, human, serum, T48, 48 hours after final 1.0 g oral dose, fasting", "value": 12.7, "unit": "µM"}]}
